Data on five compounds can be found in PubChem BioAssay AID1259411 (Chemical Carcinogenesis Research Information System (CCRIS), 2018).

Active and inactive are the calls of the source. The rule behind the calls is not given here.

This series concerns rodent carcinogenicity bioassays, tumor incidence. Kind of series: CCRIS carcinogenicity studies. The procedure, abridged: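 Archive of carcinogenicity, mutagenicity, tumor promotion and tumor inhibition results drawn from journals, NCI reports and other sources, expert-reviewed; covers 1985-2011 and is no longer updated.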

For the compound `CC(=O)Nc1c(I)c(C(=O)N[C@@H](C=O)[C@@H](O)[C@H](O)[C@H](O)CO)c(I)c(N(C)C(C)=O)c1I`, the carcinogen call (Species: MOUSE, Strain/Sex: ICR/FEMALE, Route: INTRABRONCHIAL, Dose: 0, 75 µL ONCE ADMINISTERED TO WEANLING MICE (STUDY DURATION: LIFETIME), Tumor Site: Type of Lesion: LUNG: TUMOR) is “active; positive”.
`Cc1cc2ccccc2c2ccc3c(c12)[C@@H]1O[C@@H]1[C@H](O)[C@H]3O`: the carcinogen call (Species: MOUSE, Strain/Sex: ICR/FEMALE, Route: INTRAPERITONEAL, Dose: 0, 8 NMOL IN 5 µL DMSO ON D 1, 16 NMOL IN 10 µL ON D 8 AND 32 NMOL IN 20 µL ON D 15 OF LIFE (STUDY DURATION: 35 WK), Tumor Site: Type of Lesion: LUNG: TUMOR) is “active; positive”; the carcinogen call (Species: MOUSE, Strain/Sex: ICR/FEMALE, Route: INTRAPERITONEAL, Dose: 0, 8 NMOL IN 5 µL DMSO TO PUPS ON D 1/OF LIFE THEN 16 NMOL IN 10 µL ON D 8 AND 3 NMOL IN 20 µL ON D 15 (STUDY DURATION:, Tumor Site: Type of Lesion: LUNG: TUMOR) was “active; positive”; the carcinogen call (Species: MOUSE, Strain/Sex: ICR/FEMALE, Route: INTRAPERITONEAL, Dose: 8 NMOL/5 µL DMSO ON DAY 1, 16 NMOL/10 µL ON DAY 8, AND 32 NMOL/20 µL ON DAY 15 OF AGE (STUDY DURATION: 35 WK), Tumor Site: Type of Lesion: LUNG: TUMORS) is “active; positive”; the carcinogen call (Species: MOUSE, Strain/Sex: ICR/MALE, Route: INTRAPERITONEAL, Dose: 0, 8 NMOL IN 5 µL DMSO ON D 1, 16 NMOL IN 10 µL ON D 8 AND 32 NMOL IN 20 µL ON D 15 OF LIFE (STUDY DURATION: 35 WK), Tumor Site: Type of Lesion: LUNG: TUMOR, LIVER: TUMOR) was “active; positive”; the carcinogen call (Species: MOUSE, Strain/Sex: ICR/MALE, Route: INTRAPERITONEAL, Dose: 0, 8 NMOL IN 5 µL DMSO TO PUPS ON D 1/OF LIFE THEN 16 NMOL IN 10 µL ON D 8 AND 3 NMOL IN 20 µL ON D 15 (STUDY DURATION:, Tumor Site: Type of Lesion: LUNG: TUMOR, LIVER: TUMOR) was “active; positive”; the carcinogen call (Species: MOUSE, Strain/Sex: ICR/MALE, Route: INTRAPERITONEAL, Dose: 8 NMOL/5 µL DMSO ON DAY 1, 16 NMOL/10 µL ON DAY 8, AND 32 NMOL/20 µL ON DAY 15 OF AGE (STUDY DURATION: 35 WK), Tumor Site: Type of Lesion: LUNG: TUMORS, LIVER: TUMORS) was “active; positive”.
Take `CC(N)=S`: the carcinogen call is “active; positive” (Species: MOUSE, Strain/Sex: SWISS, Route: ORAL, Dose: 0.03% IN DIET, Tumor Site: Type of Lesion: LIVER: CARCINOMA) and “active; positive” (Species: RAT, Strain/Sex: WISTAR/MALE,FEMALE, Route: ORAL, Dose: 0.032% IN DIET, Tumor Site: Type of Lesion: LIVER: BILE DUCT TUMOR, NOS).
Regarding `CCOC(=O)NCCOc1ccc(Oc2ccccc2)cc1`, the carcinogen call is, setting by setting: (Species: Mouse, Strain/Sex: CD-1/Female (50/Group), Route: Oral, Dose: 0, 30, 110, 420 ppm of 96.6% fenoxycarb in diet for 80 wk, study duration 80 wk, Dose: 0, 30, 110, 420 ppm of 96.6% fenoxycarb in diet for 80 wk, study duration 80 wk) “inactive; negative”; (Species: Mouse, Strain/Sex: CD-1/Male (50/Group), Route: Oral, Dose: 0, 30, 110, 420 ppm of 96.6% fenoxycarb in diet for 80 wk, study duration 80 wk, Dose: 0, 30, 110, 420 ppm of 96.6% fenoxycarb in diet for 80 wk, study duration 80 wk, Tumor Site: Type of Lesion: Lung: alveolar/bronchial adenomas and carcinomas, significant at 420 ppm only) “active; positive”; (Species: Rat, Strain/Sex: Crl:CD(SD)BR/Female (50/Group), Route: Oral, Dose: 0, 200, 600, 1800 ppm of 96.6% fenoxycarb in diet for 104 wk, study duration 104 wk, Dose: 0, 200, 600, 1800 ppm of 96.6% fenoxycarb in diet for 104 wk, study duration 104 wk) “inactive; negative”; (Species: Rat, Strain/Sex: Crl:CD(SD)BR/Male (50/Group), Route: Oral, Dose: 0, 200, 600, 1800 ppm of 96.6% fenoxycarb in diet for 104 wk, study duration 104 wk, Dose: 0, 200, 600, 1800 ppm of 96.6% fenoxycarb in diet for 104 wk, study duration 104 wk) “inactive; negative”.
Take `O=c1cc[nH]c(=O)[nH]1`: the carcinogen call (Species: MOUSE, Strain/Sex: B6C3F1/FEMALE, Route: ORAL, Dose: 0, 3% IN DIET FOR WK 1-6 OF STUDY THEN 0, 2.5% IN DIET FOR WK 7-96 (STUDY DURATION: 96 WK), Dose: 0, 3% IN DIET FOR WK 1-6 OF STUDY THEN 0, 2.5% IN DIET FOR WK 7-96 (STUDY DURATION: 96 WK), Tumor Site: Type of Lesion: URINARY BLADDER: TRANSITIONAL CELL CARCINOMA) is “active; positive”; the carcinogen call (Species: MOUSE, Strain/Sex: B6C3F1/MALE, Route: ORAL, Dose: 0, 3% IN DIET FOR WK 1-6 OF STUDY THEN 0, 2.5% IN DIET FOR WK 7-96 (STUDY DURATION: 96 WK), Dose: 0, 3% IN DIET FOR WK 1-6 OF STUDY THEN 0, 2.5% IN DIET FOR WK 7-96 (STUDY DURATION: 96 WK)) was “inactive; negative”; the carcinogen call (Species: RAT, Strain/Sex: F344/FEMALE, Route: ORAL, Dose: 0, 3% IN DIET FOR 104 WK (STUDY DURATION: 104 WK), Tumor Site: Type of Lesion: URINARY BLADDER: TRANSITIONAL CELL CARCINOMA) is “active; positive”; the carcinogen call (Species: RAT, Strain/Sex: F344/MALE, Route: ORAL, Dose: 0, 3% IN DIET FOR 104 WK (STUDY DURATION: 104 WK), Tumor Site: Type of Lesion: URINARY BLADDER: TRANSITIONAL CELL PAPILLOMA, TRANSITIONAL CELL CARCINOMA, RENAL PELVIS: PAPILLOMA, CARCINOMA) was “active; positive”.
